According to paper PMC5989272, “Transfer Hydrogenation and Antiproliferative Activity of Tethered Half-Sandwich Organoruthenium Catalysts” (Organometallics, 2018):

Legend:
[1] = system: A549 human lung cancer cells; assay: Antiproliferative activity (SRB assay), A549; format: cell-based; conditions: 24 h drug exposure, 72 h recovery in drug-free medium
Experimental: (§1) A2780 and A2780Cis human ovarian, A549 human lung, HEPG 2 human hepatocellular, MCF 7 human breast cancer, and MRC 5 human normal fibroblast cell lines were grown in Roswell Park Memorial Institute medium (RPMI-1640) supplemented with 10% of fetal calf serum, 1% of 2 mM glutamine, and 1% penicillin/streptomycin. All cells were grown as adherent monolayers at 310 K with 5% CO2 humidified, and all cells were passaged at ca. 80% confluency.
(§2) The antiproliferative activity and cytotoxicity of complexes 1–4 were determined in five different cancer cell lines and one human normal cell line. In general, about 5000 cells per well were seeded in 96-well plates. The plates were preincubated with drug-free medium at 310 K for 48 h before adding the tested compounds (various concentrations). Stock solutions of complexes 1–4 were prepared in DMSO/cell culture medium, and exact complex concentrations were determined by ICP-OES. […] A further cell recovery for 72 h was allowed in drug-free medium at 310 K. The sulforhodamine B (SRB) assay was used to determine cell viability. IC50 values, as the concentration that causes 50% cell death, were determined as duplicates of triplicates in two independent sets of experiments, and their standard deviations were calculated.

[2] = system: A2780Cis cisplatin-resistant ovarian cancer cells; assay: Antiproliferative activity (SRB assay), A2780Cis; format: cell-based, human; conditions: for IC50: 24 h drug exposure, 72 h recovery in drug-free medium; for RI (resistance index): ratio of IC50 A2780Cis to parental A2780
Experimental: as §1, §2

[3] = system: MRC5 normal human lung fibroblast cells; assay: Cytotoxicity (SRB assay), MRC5 normal fibroblasts; format: cell-based; conditions: 24 h drug exposure, 72 h recovery, read-out: IC50 MRC 5
Experimental: as §1, §2

[4] = system: MCF7 human breast cancer cells; assay: Antiproliferative activity (SRB assay), MCF7; format: cell-based; conditions: 24 h drug exposure, 72 h recovery in drug-free medium; read-out: IC50 MCF 7
Experimental: as §1, §2

[5] = system: A2780 human ovarian cancer cells; assay: Antiproliferative activity (SRB assay), A2780; format: cell-based; conditions: 24 h drug exposure, 72 h recovery in drug-free medium
Experimental: as §1, §2

[6] = system: HEPG2 human hepatocellular cancer cells; assay: Antiproliferative activity (SRB assay), HEPG2; format: cell-based; conditions: 24 h drug exposure, 72 h recovery in drug-free medium
Experimental: as §1, §2

[7] = system: single-stranded 50-mer oligonucleotide; assay: Binding to single-stranded 50-mer oligonucleotide (FAAS); conditions: ri = 0.5, 0.05 M NaClO4, 310 K, 24 h, dark
Experimental: (§3) After 24 h the reaction was stopped, and samples were exhaustively dialyzed against water. The ruthenium contents in these samples were determined by FAAS, and the concentrations of DNA were determined by absorption spectroscopy.

[8] = parameters: method as in PMID 16604356; conditions: cited from earlier work
[9] = system: double-helical calf thymus DNA (ct-DNA); assay: Binding to calf thymus DNA (FAAS after dialysis); conditions: ri 0.1 and 0.5, 10 mM NaClO4, 310 K, 24 h
Experimental: The reaction was terminated after 24 h of incubation, and samples were exhaustively dialyzed against water. The ruthenium content in these samples was determined by flameless atomic absorption spectrometry (FAAS) and the concentration of DNA by absorption spectrophotometry.

[10] = system: double-stranded 50-mer oligonucleotide; assay: Binding to double-stranded 50-mer oligonucleotide (FAAS); conditions: ri = 0.5, 0.05 M NaClO4, 310 K, 24 h, dark
Experimental: as §3

[11] = system: A2780 human ovarian cancer cells; assay: ROS/superoxide induction (flow cytometry); format: cell-based; conditions: IC50 concentration, 24 h; pyocyanin 30 min
Experimental: The total level of oxidative stress, including H2O2, peroxy and hydroxyl radical, peroxynitrite, NO, and superoxide production, was monitored using the green channel FL1 and orange channel FL2, respectively.
Positive controls were obtained by exposure of cells to pyocyanin for 30 min. Data were processed using Flowjo software. At all times, samples were kept under dark conditions to avoid light-induced ROS production.

[12] = system: A2780 human ovarian cancer cells; assay: Cell viability on coincubation with sodium formate (SRB); conditions: 0.5, 1 and 2 mM sodium formate
Experimental: Experiments included three sets of controls: the first, negative controls, consisted of untreated cells (only vehicle exposure), a second set was exposed to three concentrations of sodium formate (0.5, 1, and 2 mM), and a third set was exposed to cisplatin as positive controls. […] Following 72 h of recovery time in drug-free medium, cell survival was evaluated using the Sulforhodamine B colorimetric assay.
Cell viability assays of complexes 1–4 were carried out with A2780 ovarian cancer cells with sodium formate. […] Drug stock solutions (ca. 100 μM) were prepared as described for in vitro growth inhibition assays and then further diluted with media until working concentrations were achieved. Separately, a stock solution of sodium formate was prepared in saline. The complex and formate solutions were added to each well independently within 5 min of each other. All other experimental conditions were kept unchanged (drug exposure, cell recovery time, and end point assay used). The standard deviations were calculated.

[13] = NAD+ to NADH, formate hydride donor; Ru/NAD+/formate 1/6/1200, pH 7.2, 310 K, 340 nm
Experimental: (§4) Catalytic transfer hydrogenation reactions of complexes 1–4 and sodium formate as hydride donor for conversion of nicotinamide adenine dinucleotide (NAD^+) to NADH were studied in aqueous media by UV–visible spectroscopy by following the absorbance at 340 nm for NADH and by ^1H NMR spectroscopy (20% DMSO-d6 in D2O) by monitoring peaks corresponding to 1,4-NADH.
Complexes 1–4 were dissolved in DMSO/H2O (1/9 v/v) (84 μM) in a glass vial. Solutions of sodium formate (102 mM) and NAD^+ in H2O (510 μM) were also prepared and then mixed at 310 K. In a typical experiment, an aliquot of 330 μL from each solution was placed in a 1 mL cuvette and the pH adjusted to 7.2 before the sample was introduced into the UV–vis instrument, giving a total volume of 1 mL (final concentrations were Ru complex 28 μM, NAD^+ 170 μM, NaHCO2 34 mM, molar ratio 1/6/1200). UV spectra were recorded every 5 min until completion of the reaction. The spectrum was monitored for an increase in the band at 340 nm, which corresponds to the absorption of NADH.

[14] = NAD+ to NADH, formate hydride donor; Ru/NAD+/formate 1/4/25, DMSO-d6/D2O, pH* 7.2, 310 K
Experimental: as §4
Complexes 1–4 were dissolved in DMSO-d6/D2O (3/2 v/v; 1.4 mM) in a glass vial. Aliquots (200 μL) of solutions of sodium formate (35 mM) and NAD^+ (5.6 mM) in D2O were added, and the pH* was adjusted to 7.2 ± 0.1, for a final volume of 0.64 mL (Ru complex 0.44 mM, NAD^+ 1.75 mM, NaHCO2 10.94 mM; molar ratio 1/4/25). The solution was transferred to a 5 mm NMR tube, and a ^1H NMR spectrum was recorded at 310 K every 162 s until the completion of the reaction. Molar ratios of NAD^+ and NADH were determined by integrating the peaks corresponding to resonances for NAD^+ (9.33 ppm) and 1,4-NADH (6.96 ppm). The turnover number (TON) for the reaction was calculated [drawing 1] where In is the integral of the signal at n ppm and [NAD^+] is the concentration of NAD^+ at the start of the reaction.

[15] = system: A2780 human ovarian cancer cells; conditions: 24 h exposure at equipotent IC50 concentration, no recovery
Experimental: (§5) ICP-MS and ICP-OES analyses were carried out on Agilent Technologies 7500 series and PerkinElmer Optima 5300 DV series instruments, respectively. The double-deionized (DDW) water used for both analyses was from a Millipore Milli-Q water purification system and a USF Elga UHQ water deionizer. The Ruthenium Specpure plasma standard (ruthenium chloride, 1004 ± 5 μg/mL in 10% v/v hydrochloric acid) was diluted with 3.6% v/v HNO3, and calibrants were prepared freshly at concentrations of 0.1–500 ppb for ICP-MS and 50–700 ppb for ICP-OES. In particular, calibration standards for ICP-OES analysis were adjusted with standard sodium chloride (TraceSELECT) solution to match the sample salinity. The instrument was set to detect ^101Ru with typical detection using no-gas mode for ICP-MS analysis.
(§6) Cellular Ru accumulations for complexes 2 and 4 were determined on A2780 ovarian and A2780 cisplatin-resistant ovarian cancer cells. Approximately 2 × 10^6 cells were seeded in a six-well plate and preincubated in drug-free medium at 310 K for 24 h, and stock solutions of both complexes were prepared in a mixture of DMSO/cell culture medium and their accurate Ru concentrations were determined by ICP-OES. […] After this time, cells were treated with trypsin and counted and cell pellets were collected. […] Statistical significances of variations were determined using Welch’s t-tests.

A2780Cis cells = conditions: 24 h exposure at equipotent IC50 concentration, no recovery
Experimental: as §5, §6

Row | IC50 [1] [µM] | IC50 [2] [µM] | IC50 [4] [µM] | IC50 [5] [µM] | IC50 [6] [µM] | Compound | RI (resistance index) [2] | IC50 [3] [µM] | TOF (UV–vis) [13] [h^–1] | TOF (NMR) [14] [h^–1] | other results
1 | 3.1 ± 0.1 | 13.4 ± 0.3 | 7.3 ± 0.2 | 1.2 ± 0.02 | 5.7 ± 0.9 | [NH2][Pt]([NH2])([Cl])[Cl] [CDDP, cisplatin, reference compound] | 11 | 12.8 ± 0.3 | – | – | selectivity index between MRC5 normal cells and A2780Cis cancer cells ([2]; MRC5 vs A2780Cis): 0.95
2 | – | – | – | – | – | Cc1ccc(C(C)C)cc1.Cc1ccc(S(=O)(=O)[N](CCN)[Ru][Cl])cc1 [JS2, [(η^6-p-cym)Ru(TsEn)Cl]] | – | – | – | – | Ru bound to single-stranded oligonucleotide [7]: No Ru associated; TOF for TH reduction of NAD+ [8]: 2.88 h^–1; ruthenium bound to ct-DNA [9]: No detectable amount of ruthenium; Ru bound to double-stranded oligonucleotide [10]: No Ru associated
3 | – | – | – | – | – | Cn1c2cccc(=O)c-2nc2ccccc21 [Pyocyanin, pyocyanin] | – | – | – | – | Cell Populations FL-1+/FL-2+ [11]: 96.1 ± 0.8%; Cell Populations FL-1+/FL-2- (total oxidative stress) [11]: 1.5 ± 0.6%; Cell Populations FL-1-/FL-2+ (superoxide) [11]: 2.5 ± 0.9%; Cell Populations FL-1-/FL-2- [11]: 0.45 ± 0.08%
4 | – | – | – | – | – | F[P-](F)(F)(F)(F)F.NCCN.[Cl][Ru+].c1ccc(-c2ccccc2)cc1 [RM175, [(η^6-biph)Ru(en)Cl]PF6] | – | – | – | – | TOF for TH reduction of NAD+ [8]: 0.18 h^–1
5 | – | – | – | – | – | O=C[O-].[Na+] [sodium formate] | – | – | – | – | toxicity of formate alone [12]: not toxic
6 | 33 ± 1 | > 50 | 28.9 ± 0.9 | 23 ± 1 | 27.8 ± 0.1 | [Ru(η^6-Ph(CH2)3-ethylenediamine-N-Ms)Cl] [Complex 1] | >2 | 31 ± 1 | 5.8 ± 0.2 | 3.79 ± 0.05 | –
7 | 31 ± 2 | > 50 | 24 ± 3 | > 50 | > 50 | [Ru(η^6-Ph(CH2)3-ethylenediamine-N-Tf)Cl] [Complex 3] | – | 28 ± 3 | 8.69 ± 0.07 | 8.9 ± 0.3 | –

Row | Compound | IC50 [1] [µM] | IC50 [2] [µM] | IC50 [4] [µM] | IC50 [5] [µM] | IC50 [6] [µM] | RI (resistance index) [2] | IC50 [3] [µM] | TOF (UV–vis) [13] [h^–1] | TOF (NMR) [14] [h^–1] | other results
8 | [Ru(η^6-Ph(CH2)3-ethylenediamine-N-Nb)Cl] [Complex 4] | 30 ± 1 | > 50 | 9.9 ± 0.5 | 16 ± 0.3 | 23 ± 4 | >3 | 26 ± 1 | 9.9 ± 0.2 | 8.5 ± 0.2 | cellular Ru content [15]: 150 ± 38 ng per million cells; cellular Ru content (A2780Cis cells): 241 ± 10 ng per million cells
